Assay results from paper PMC4459817, “Vasculotide reduces endothelial permeability and tumor cell extravasation in the absence of binding to or agonistic activation of Tie2” (EMBO Molecular Medicine, 2015).
Entries after “also recorded” stand apart in the source; their conditions may differ.

Columns and labels:
human Tie2-Fc (hTie2-Fc) = target: T1, human Tie2-Fc (hTie2-Fc) (Homo sapiens, UniProt Q02763); experiment: SPR binding to human Tie2-Fc; conditions: human Tie2-Fc, 0.625–10 nM, 37°C, pH 7.4, Fig9C
T1 construct: Purified human or mouse Tie2-Fc (i.e., Fc-conjugated extracellular domains of Tie2); purchased R&D Systems 313-TI-100
From the text: (§1) To better understand the difficulties we had in observing Tie2 activation by VT, we sought to characterize the binding affinity and kinetics of VT to Tie2. Purified human or mouse Tie2-Fc (i.e., Fc-conjugated extracellular domains of Tie2) were first coupled to protein A sepharose beads for pull-down experiments (Fig9A and B) or immobilized on a Biacore CM5 sensor chip for surface plasmon resonance (SPR) experiments (Fig9C and Supplementary Fig S3).
Figure 9 Binding of Vasculotide vs. Ang1 variants to the extracellular domain of Tie2 • A–B Pull-down assay. Input ligands—rhAng1 (A) and VT (B)—were incubated with either protein A sepharose beads only, bead-conjugated mouse Tie2-Fc (mTie2), or bead-conjugated human Tie2-Fc (hTie2). […] The ‘unbound’ fraction is 7% of residual/free ligands remaining in the supernatant. • C Quantitative kinetics analysis by SPR. All analytes were run at increasing concentrations of 0.625, 1.25, 2.5, 5, and 10 nM, at 37°C and pH 7.4. […] Source data are available online for this figure. […]
(§2) 9. Tie2 Receptor-Binding Assays
(§3) Vasculotide (VT) was manufactured by Bachem UK Ltd. T7c (CHHHRHSF) was synthesized by Genscript (Piscataway, NJ, USA). PEG-Cys consists of a single cysteine reacted to each of the 4 arms of PEG-maleimide (Sunbright PTE-100MA, NOF Corporation, Tokyo, Japan). BowAng1 (Ang1-Fd-Fc-Fd) was made and provided by Regeneron Pharmaceuticals, Inc. (Tarrytown, NY, USA). COMP-Ang1 was purified in the Kerbel lab from serum-free culture media conditioned by an engineered CHO cell line provided by Dr. Gou Young Koh (KAIST), according to published protocols (Hwang et al, 2008).
(§4) Recombinant human Angiopoietin-1 (rhAng1) and Vascular Endothelial Growth Factor ( rhVEGF) were […]
(§5) purchased from R&D Systems. […]
(structural/molecular weight control for VT), and 40 μL of supernatant (7% of residual/unbound ligand) – were similarly boiled in SDS sample buffer. Ang1 samples and controls were resolved by 7.5% polyacrylamide gel electrophoresis (PAGE), electroblotted onto PVDF membranes, and probed with an anti-Ang1 antibody (R&D Sytems, AF923; diluted 1:2,000 in TBS supplemented with 7% BSA and 0.1% Tween-20) at 75kDa (reduced monomers). VT samples and controls were resolved by 17% PAGE, blotted onto PVDF membranes, and probed with an anti-PEG antibody (Silver Lake Research, CH2074; diluted 1:4,000 in TBS supplemented with 7% BSA and 0.05% CHAPS*) at higher “apparent” molecular weights than the expected 14 and 10kDa due to their polymeric nature and large hydrodynamic radii (Zheng et al, 2007). *Note: non-ionic, PEO-based, polymer detergents were avoided at these steps as they cross-react with the anti-PEG antibody used for detecting VT.
Surface Plasmon Resonance (SPR) Experiments: The binding of analytes – VT, T7c peptide, PEG-Cys, rhAng1, COMP-Ang1, BowAng1, and rhVEGF – to the extracellular domain of Tie2 were […]
investigated by SPR using a Biacore T200 Instrument (GE Healthcare). For qualitative binding analysis, mTie2-Fc was dissolved in 10mM acetate buffer (pH 4.5) and immobilized at high density onto a CM5 sensor chip using amine coupling chemistry as described by the manufacturer to a response of 11,500RU.
Binding analysis were performed by exposure of immobilized mTie2-Fc to the analytes diluted in HBS-EP (0.01M HEPES pH 7.4, 0.15M NaCl, 3mM EDTA, 0.005% v/v Tween-20), which was supplemented with 1mg/mL carboxymethyl dextran (NSB reducer, GE Healthcare) to reduce non-specific binding to the sensor chip. Analytes were injected at 30μL/min (association time 120s, dissociation time 120s) at 37 °C, and the chip surface was regenerated each cycle by a 60s pulse of 4M MgCl2. To quantitatively determine the kinetic properties of the interaction (KD, kd, ka) and avoid mass transport limitations, mTie2-Fc and hTie2-Fc were immobilized at low density (1,000-1,200RU) onto separate flow cells of the CM5 chip using amine coupling chemistry. Kinetic analyses were performed using a single-cycle kinetic […]

mouse Tie2-Fc (mTie2-Fc) = target: T2, mouse Tie2-Fc (mTie2-Fc) (Mus musculus, UniProt Q02858); experiment: SPR binding to mouse Tie2-Fc; conditions: mouse Tie2-Fc (low- and high-density), 37°C, pH 7.4, Supplementary Fig S3
T2 construct: Purified human or mouse Tie2-Fc (i.e., Fc-conjugated extracellular domains of Tie2); purchased R&D Systems 762-T2-100
From the text: as §1, with “S3). […]” for “S3).”
as §2, §3, §4, §5
(structural/molecular weight control for VT), and 40 μL of supernatant (7% of residual/unbound ligand) – were similarly boiled in SDS sample buffer. […]
Binding analysis were performed by exposure of immobilized mTie2-Fc to the analytes diluted in HBS-EP (0.01M HEPES pH 7.4, 0.15M NaCl, 3mM EDTA, 0.005% v/v Tween-20), which was supplemented with 1mg/mL carboxymethyl dextran (NSB reducer, GE Healthcare) to reduce non-specific binding to the sensor chip. […] To quantitatively determine the kinetic properties of the interaction (KD, kd, ka) and avoid mass transport limitations, mTie2-Fc and hTie2-Fc were immobilized at low density (1,000-1,200RU) onto separate flow cells of the CM5 chip using amine coupling chemistry. […] All data were analysed using BIA Evaluation Software 2.0 (GE Healthcare) to calculate kd, ka and KD using the 1:1 ligand binding model. […]

[1] = tested on: human microvascular ECs of dermal blood vessel origin (HMVEC-DBl); experiment: modified Boyden chamber, thrombin-stimulated FITC-dextran permeability, HMVEC-DBl; type: cell-based; conditions: HMVEC-DBl; structural control alone; Fig1D
Experimental: ECs were first treated with Vasculotide (VT), PBS (vehicle/negative control), Ang1 (positive control), PEG-Cys (polyethylene glycol backbone), T7c (non-PEGylated CHHHRHSF peptides), or VT in the presence of 100-fold molar excess of T7c. The concentrations used, 10–20 ng/mL VT and 200–400 ng/mL Ang1, are estimated molar equivalents (0.71–1.43 nM). Thirty minutes later, ECs were stimulated with thrombin, 0.1% BSA (vehicle/negative control), or EDTA (positive control). Another 30mins later, the amount of FITC-dextran diffusion into the lower chambers (A, D) provides a measure of endothelial permeability. CMTPX-labeled tumor cells (TCs) were then dispensed into inserts, and the amount of TC fluorescence emitting from the underside of insert membranes after 20 h (B–C) or 28 h (E) reflects the efficiency of trans-endothelial TC migration. Representative fluorescent images (10×) of membrane undersides are shown in (C), where DAPI-stained nuclei of ECs/TCs are shown in blue, ‘extravasated’ CMTPX-labeled TCs are shown in red, and the # of CMTPX^+ pixels are shown numerically in red. Means ± SEM are shown (A,B,D,E). Three experiments (twice with HMVEC-LBl and once with HMVEC-DBl) were run with n = 3–5 inserts (independent biological replicates) per group and analyzed by two-sampled unpaired t-tests. […]
Endothelial cells (ECs) were grown on cell culture inserts with uncoated 8-μm-pore PET filter membranes to 100% confluency. […] After 30 min of thrombin stimulation or 4–6 h of TC-CM stimulation, FITC fluorescence (ex/em = 490/520 nm) was measured from a 50 μl sample of the lower chamber media. […] CMPTX fluorescence from migrated TCs was then quantified from 10× microscopy images using a MATLAB (MathWorks, Natick, MA, USA) script; five images (technical replicates) were analyzed per insert. […]

T2 sequence (Q02858 23-746 limits assumed): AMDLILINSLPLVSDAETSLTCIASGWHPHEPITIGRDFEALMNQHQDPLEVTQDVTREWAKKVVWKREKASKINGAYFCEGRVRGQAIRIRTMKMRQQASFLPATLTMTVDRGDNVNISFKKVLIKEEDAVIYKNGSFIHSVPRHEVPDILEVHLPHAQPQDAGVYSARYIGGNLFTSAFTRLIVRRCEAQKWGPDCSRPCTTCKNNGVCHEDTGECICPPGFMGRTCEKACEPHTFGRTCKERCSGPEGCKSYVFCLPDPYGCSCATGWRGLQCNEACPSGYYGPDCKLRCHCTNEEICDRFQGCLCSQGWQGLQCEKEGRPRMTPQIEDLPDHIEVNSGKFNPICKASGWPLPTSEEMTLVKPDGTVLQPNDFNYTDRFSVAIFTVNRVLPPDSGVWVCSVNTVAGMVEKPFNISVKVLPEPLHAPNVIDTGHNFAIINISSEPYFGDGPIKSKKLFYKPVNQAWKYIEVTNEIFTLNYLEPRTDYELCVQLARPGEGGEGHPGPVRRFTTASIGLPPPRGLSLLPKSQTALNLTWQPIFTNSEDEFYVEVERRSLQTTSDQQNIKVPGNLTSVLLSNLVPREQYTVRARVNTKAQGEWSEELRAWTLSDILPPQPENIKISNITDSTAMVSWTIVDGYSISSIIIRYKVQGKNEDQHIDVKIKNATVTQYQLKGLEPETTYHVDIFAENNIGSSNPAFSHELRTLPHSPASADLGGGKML
T1 sequence (Q02763 23-748 limits assumed): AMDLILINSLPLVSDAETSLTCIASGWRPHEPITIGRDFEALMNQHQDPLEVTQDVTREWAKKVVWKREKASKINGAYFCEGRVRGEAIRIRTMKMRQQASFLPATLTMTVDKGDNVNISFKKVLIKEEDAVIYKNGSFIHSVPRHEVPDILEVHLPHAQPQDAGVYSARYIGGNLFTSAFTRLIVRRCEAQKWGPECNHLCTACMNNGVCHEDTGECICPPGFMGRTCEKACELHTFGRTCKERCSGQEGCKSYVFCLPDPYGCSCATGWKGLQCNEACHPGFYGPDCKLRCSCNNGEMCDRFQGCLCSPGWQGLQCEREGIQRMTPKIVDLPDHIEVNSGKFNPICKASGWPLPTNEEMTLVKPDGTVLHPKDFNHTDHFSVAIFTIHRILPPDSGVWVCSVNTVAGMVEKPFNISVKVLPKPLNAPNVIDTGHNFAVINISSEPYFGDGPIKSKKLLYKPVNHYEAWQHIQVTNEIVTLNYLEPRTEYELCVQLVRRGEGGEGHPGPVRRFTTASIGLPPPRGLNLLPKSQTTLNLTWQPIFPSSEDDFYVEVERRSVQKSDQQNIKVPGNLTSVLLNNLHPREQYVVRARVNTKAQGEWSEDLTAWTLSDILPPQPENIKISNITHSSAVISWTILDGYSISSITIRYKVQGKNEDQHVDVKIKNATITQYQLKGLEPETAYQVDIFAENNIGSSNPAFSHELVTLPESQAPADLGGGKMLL

Substance	binding to Tie2-Fc (human Tie2-Fc (hTie2-Fc))	binding to Tie2-Fc (human Tie2-Fc (hTie2-Fc); listed as rhVEGF)	binding to Tie2-Fc (mouse Tie2-Fc (mTie2-Fc))	trans-endothelial permeability, structural components of VT [1]
VEGF	no binding to Tie2-Fc was detectable	no detectable binding	no binding to Tie2-Fc was detectable	
CHHHRHSF [T7c, non-PEGylated CHHHRHSF peptides, reference compound]			no binding to Tie2-Fc was detectable; also recorded: undetectable binding	partial effects
